Our source for the IC50 values is ChEMBL document CHEMBL1129670, “Synthesis and structure-activity relationships of N-propyl-N-(4-pyridinyl)-1H-indol-1-amine (besipirdine) and related analogs as potential therapeutic agents for Alzheimer's disease” (J Med Chem, 1996).

For experiment [1], the target named is T1, Adrenergic receptor alpha-2 (Rattus norvegicus, UniProt P22086+P19328+P22909).
T1 sequence (P22086 whole entry): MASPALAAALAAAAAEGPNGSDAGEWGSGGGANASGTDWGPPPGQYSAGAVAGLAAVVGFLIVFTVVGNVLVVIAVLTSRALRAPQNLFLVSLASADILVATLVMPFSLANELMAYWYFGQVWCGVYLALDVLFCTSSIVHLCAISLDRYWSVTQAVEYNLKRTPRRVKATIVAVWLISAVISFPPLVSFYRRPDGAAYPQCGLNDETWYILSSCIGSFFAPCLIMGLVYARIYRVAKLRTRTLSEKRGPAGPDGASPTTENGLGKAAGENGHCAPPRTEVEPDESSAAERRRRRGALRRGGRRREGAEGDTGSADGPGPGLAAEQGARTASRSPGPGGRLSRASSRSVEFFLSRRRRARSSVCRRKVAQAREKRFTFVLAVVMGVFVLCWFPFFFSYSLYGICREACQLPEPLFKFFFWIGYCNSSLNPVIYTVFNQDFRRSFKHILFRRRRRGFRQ
T1 sequence (P19328 whole entry): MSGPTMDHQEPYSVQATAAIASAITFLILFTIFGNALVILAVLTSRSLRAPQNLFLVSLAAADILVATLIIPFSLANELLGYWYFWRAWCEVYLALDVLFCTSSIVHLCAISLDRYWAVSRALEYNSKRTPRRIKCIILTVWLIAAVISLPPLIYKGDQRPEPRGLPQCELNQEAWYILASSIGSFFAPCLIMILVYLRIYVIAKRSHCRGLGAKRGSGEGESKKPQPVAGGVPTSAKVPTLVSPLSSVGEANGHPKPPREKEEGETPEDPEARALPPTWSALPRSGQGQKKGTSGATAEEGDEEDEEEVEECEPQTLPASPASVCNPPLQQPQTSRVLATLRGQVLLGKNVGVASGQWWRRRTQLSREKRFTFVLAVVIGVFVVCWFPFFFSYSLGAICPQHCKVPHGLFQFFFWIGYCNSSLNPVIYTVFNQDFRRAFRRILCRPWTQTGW
T1 sequence (P22909 whole entry): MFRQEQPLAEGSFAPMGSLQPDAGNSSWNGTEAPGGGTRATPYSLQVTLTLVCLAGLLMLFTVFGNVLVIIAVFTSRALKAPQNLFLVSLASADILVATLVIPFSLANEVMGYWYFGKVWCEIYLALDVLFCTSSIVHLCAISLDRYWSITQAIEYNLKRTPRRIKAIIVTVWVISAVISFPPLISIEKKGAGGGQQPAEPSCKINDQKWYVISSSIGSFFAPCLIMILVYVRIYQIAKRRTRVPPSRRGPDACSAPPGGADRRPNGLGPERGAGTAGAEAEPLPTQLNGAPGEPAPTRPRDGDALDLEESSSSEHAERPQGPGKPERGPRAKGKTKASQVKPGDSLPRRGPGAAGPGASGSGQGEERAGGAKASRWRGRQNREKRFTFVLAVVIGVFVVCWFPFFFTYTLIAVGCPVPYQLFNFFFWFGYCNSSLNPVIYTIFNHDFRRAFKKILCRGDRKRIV
Briefly: Inhibitory activity against [3H]idazoxan binding to Alpha-2 adrenergic receptor in rat cortex, in the presence of GPP.

In experiment [2] the target is T2, Muscarinic acetylcholine receptor M2 (Rattus norvegicus, UniProt P10980).
T2 sequence (P10980 whole entry): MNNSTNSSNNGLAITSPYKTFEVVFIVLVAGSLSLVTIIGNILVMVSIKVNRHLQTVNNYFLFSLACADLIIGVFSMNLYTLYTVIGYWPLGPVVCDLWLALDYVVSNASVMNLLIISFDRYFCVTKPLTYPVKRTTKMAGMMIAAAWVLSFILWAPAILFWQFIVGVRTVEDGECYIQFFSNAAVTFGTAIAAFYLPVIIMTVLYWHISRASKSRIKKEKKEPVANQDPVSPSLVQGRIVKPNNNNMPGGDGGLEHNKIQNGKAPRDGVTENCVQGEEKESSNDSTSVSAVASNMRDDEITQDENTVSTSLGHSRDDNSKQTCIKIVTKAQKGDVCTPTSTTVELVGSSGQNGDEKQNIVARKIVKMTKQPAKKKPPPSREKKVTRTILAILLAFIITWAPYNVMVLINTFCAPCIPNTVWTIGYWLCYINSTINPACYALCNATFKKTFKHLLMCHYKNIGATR
The experiment in a line: Inhibitory activity against [3H]N-methyl-scopolamine binding to Muscarinic acetylcholine receptor M2 in rat cerebellum. The class given is tissue-based.

Experiment [3] concerns the target Mu-type opioid receptor (Rattus norvegicus, UniProt P33535). Briefly: Inhibitory activity against [3H]DHM binding to mu opioid receptor in rat whole brain.
Experiment [4] addresses Glutamate NMDA receptor. The experiment in a line: Inhibitory activity against [3H]TCP binding to Phencyclidine receptor in rat cortex.
In experiment [5] the target is T3, Muscarinic acetylcholine receptor M1 (Rattus norvegicus, UniProt P08482).
T3 sequence (P08482 whole entry): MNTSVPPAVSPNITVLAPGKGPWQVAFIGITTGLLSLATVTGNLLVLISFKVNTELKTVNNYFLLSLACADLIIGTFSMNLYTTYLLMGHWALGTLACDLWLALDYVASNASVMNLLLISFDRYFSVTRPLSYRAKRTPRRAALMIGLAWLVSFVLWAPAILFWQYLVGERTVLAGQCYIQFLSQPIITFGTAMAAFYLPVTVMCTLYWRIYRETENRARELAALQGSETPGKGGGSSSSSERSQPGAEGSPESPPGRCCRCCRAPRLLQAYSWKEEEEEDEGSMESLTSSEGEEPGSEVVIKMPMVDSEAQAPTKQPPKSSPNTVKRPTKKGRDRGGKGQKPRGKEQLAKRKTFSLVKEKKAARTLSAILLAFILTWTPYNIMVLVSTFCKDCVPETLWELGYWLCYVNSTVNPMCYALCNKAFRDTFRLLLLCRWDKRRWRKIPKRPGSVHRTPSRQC
The experiment in a line: Inhibitory activity against [3H]pirenzepine binding to muscarinic M1 receptor in rat cortex.

The target of experiment [6] is T1, Adrenergic receptor alpha-2. Briefly: Inhibitory activity against [3H]yohimbine binding to Alpha-2 adrenergic receptor in rat cortex.
Experiment [7] has as its target Neuronal acetylcholine receptor. The experiment in a line: Inhibitory activity against [3H]-NMCC binding to nicotinic receptors in rat cortex.
For experiment [8], the species on record is Rattus norvegicus. The experiment in a line: Inhibitory activity against [3H]norepinephrine (NE) uptake in rat hypothalamus. The class given is functional.
In experiment [9] the target is Muscarinic acetylcholine receptor. Briefly: Inhibitory activity against [3H]oxotremorine-M binding to muscarinic receptors in rat forebrain membrane. The class given is cell membranes.

Structures are written as SMILES.

Chain of Mu-type opioid receptor (P33535 whole entry): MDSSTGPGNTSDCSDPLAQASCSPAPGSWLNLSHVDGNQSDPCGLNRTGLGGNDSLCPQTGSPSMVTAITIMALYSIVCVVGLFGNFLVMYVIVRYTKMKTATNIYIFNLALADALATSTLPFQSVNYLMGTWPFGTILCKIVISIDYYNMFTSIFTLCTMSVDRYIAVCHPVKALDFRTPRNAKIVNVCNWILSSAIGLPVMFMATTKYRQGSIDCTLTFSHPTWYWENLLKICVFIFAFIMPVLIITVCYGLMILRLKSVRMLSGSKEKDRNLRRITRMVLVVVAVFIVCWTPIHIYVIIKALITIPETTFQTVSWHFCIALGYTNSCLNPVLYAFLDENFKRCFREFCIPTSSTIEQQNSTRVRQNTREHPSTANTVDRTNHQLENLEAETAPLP

`CCCN(c1ccncc1)n1ccc2ccccc21` [BESIPIRDINE]: the IC50 is 140 nM in [1]; 1000 nM in experiment [2]; more than 1000 nM in experiment [3]; more than 20000 nM in experiment [4]; 1300 nM in [5]; 250 nM in experiment [6]. Moreover, the IC50 in [7] was more than 20000 nM; in experiment [8], 270 nM; in experiment [9], 460 nM.

As a reminder, the IC50 is the concentration at which inhibition is half-maximal.
